Data taken from ChEMBL document CHEMBL1140682, “A novel series of potent cytotoxic agents targeting G2/M phase of the cell cycle and demonstrating cell killing by apoptosis in human breast cancer cells” (Bioorg Med Chem Lett, 2007).
Active and inactive are the calls of the source. No cut-off for these calls is given here.

Legend:
[1] = system: MDA-MB-468; test: Induction of apoptosis in MDA-MB-468 cells assessed as nuclear condensation at 8.0 uM after 24 hrs by electron microscopy; assay type: functional, cell-based; settings: Homo sapiens
[2] = system: MDA-MB-468; test: Cell cycle arrest in MDA-MB-468 cells by accumulation at G0/G1 phase at 4.0 uM after 24 hrs; assay type: functional, Homo sapiens
[3] = system: MDA-MB-468; test: Cell cycle arrest in MDA-MB-468 cells by accumulation at S phase at 8.0 uM after 24 hrs; assay type: functional, Homo sapiens
[4] = system: MDA-MB-468; test: Cell cycle arrest in MDA-MB-468 cells by accumulation at G0/G1 phase at 0.5 uM after 24 hrs; assay type: functional, Homo sapiens
[5] = system: MDA-MB-468; test: Cell cycle arrest in MDA-MB-468 cells by accumulation at S phase at 0.5 uM after 24 hrs; assay type: functional, Homo sapiens
[6] = system: MDA-MB-468; test: Cell cycle arrest in MDA-MB-468 cells by accumulation at G2/M phase at 8.0 uM after 24 hrs; assay type: functional, Homo sapiens
[7] = system: MDA-MB-468; test: Cell cycle arrest in MDA-MB-468 cells by accumulation at G2/M phase at 4.0 uM after 24 hrs; assay type: functional, Homo sapiens
[8] = system: MDA-MB-468; test: Cell cycle arrest in MDA-MB-468 cells by accumulation at G0/G1 phase at 8.0 uM after 24 hrs; assay type: functional, Homo sapiens
[9] = system: MDA-MB-468; test: Cell cycle arrest in MDA-MB-468 cells by accumulation at G2/M phase at 0.5 uM after 24 hrs; assay type: functional, Homo sapiens
[10] = system: MDA-MB-468; test: Induction of apoptosis in MDA-MB-468 cells assessed as apoptotic bodies at 8.0 uM after 24 hrs by electron microscopy; assay type: functional, cell-based; settings: Homo sapiens
[11] = system: MDA-MB-468; test: Induction of apoptosis in MDA-MB-468 cells assessed as DNA fragmentation after 24 hrs by TUNEL assay; assay type: functional, cell-based; settings: Homo sapiens
[12] = system: MDA-MB-468; test: Induction of apoptosis in MDA-MB-468 cells assessed as alteration in p53 localization; assay type: functional, cell-based; settings: Homo sapiens
[13] = system: MDA-MB-468; test: Inhibition of human ER negative MDA-MB-468 cells by MTT assay; assay type: functional, cell-based
[14] = system: MDA-MB-468; test: Induction of apoptosis in MDA-MB-468 cells assessed as p53 levels at 8.0 uM; assay type: functional, cell-based; settings: Homo sapiens
[15] = system: MDA-MB-468; test: Induction of apoptosis in MDA-MB-468 cells assessed as vacuolization at 8.0 uM after 24 hrs by electron microscopy; assay type: functional, cell-based; settings: Homo sapiens
[16] = system: MDA-MB-468; test: Cell cycle arrest in MDA-MB-468 cells by accumulation at S phase at 4.0 uM after 24 hrs; assay type: functional, Homo sapiens
[17] = system: MDA-MB-468; test: Cell cycle arrest in MDA-MB-468 cells by accumulation at G2/M phase at 1.0 to 2.0 uM by flow cytometry; assay type: functional, cell-based; settings: Homo sapiens
[18] = system: MDA-MB-468; test: Induction of apoptosis in MDA-MB-468 cells assessed as blebbing at 8.0 uM after 24 hrs by electron microscopy; assay type: functional, cell-based; settings: Homo sapiens

c1ccc(Sc2nc(Sc3ccccn3)nc(Sc3ccccn3)n2)nc1
Activity [1]: Active
Activity [2]: 33.6%
Activity [3]: 20.8%
Activity [4]: 49%
Activity [5]: 29.2%
Activity [6]: 42.9%
Activity [7]: 40.5%
Activity [8]: 36.3%
Activity [9]: 21.8%
Activity [10]: Active
Activity [11]: Dose-dependent effect
Activity [12]: Dose-dependent effect
IC50 [13]: 1600 nM
Activity [14]: inactive
Activity [15]: Active
Activity [16]: 25.9%
Activity [17]: Active
Activity [18]: Active
